Results reported in patent publication US20260335347A1, “COMBINATION THERAPY WITH SPARSENTAN AND A SGLT2 INHIBITOR FOR TREATING KIDNEY DISEASES OR DISORDERS” (Travere Therapeutics, Inc., priority 2022, published 2026).
Like-named read-outs stand apart in the source and are kept apart here. Values belong to the compound of their own block, whether it stands above or below them.

Tests used:
patients with FSGS [1] = test: DUPLEX trial: interim safety; format: in vivo, human
Procedure: (§1) The efficacy and safety of sparsentan were evaluated in DUPLEX, a randomized, double-blind, active-controlled, multicenter, global trial in patients with FSGS after exclusion of known secondary causes.
(§2) All patients were randomized at a 1:1 ratio to receive sparsentan or the active control, irbesartan. Sparsentan was administered at a dose of 400 mg once daily by mouth for 2 weeks and then titrated to 800 mg once daily as tolerated. Irbesartan was administered at a dose of 150 mg once daily by mouth for 2 weeks and then titrated to 300 mg once daily as tolerated. In patients weighing 50 kg or less, dosing was halved in both treatment arms (e.g., sparsentan administered at a dose of 200 mg once daily by mouth for 2 weeks and then titrated to 400 mg once daily as tolerated).

[2] = Open-label drug-drug interaction study in healthy adults: plasma dapagliflozin PK; format: in vivo, human; conditions: for AUC(0-inf) / AUC(0-t) / Cmax: human, plasma, 10 mg; for AUC(0-inf): n = 16; for AUC(0-t) / Cmax: n = 20
Procedure: (§3) Potential drug-drug interactions (DDI) of sparsentan with SGLT2 inhibitors are not known. The safety of administering sparsentan and dapagliflozin was evaluated in an open-label, drug-drug interaction study in healthy […]. This phase 1 study examined the effect of multiple doses of sparsentan on the pharmacokinetics (PK) of single-dose dapagliflozin and assessed the safety and tolerability of single-dose dapagliflozin when co-administered after multiple doses of sparsentan in healthy adults.
(§4) The open-label DDI study included Period 1 (Days 1-5; single dose of 10 mg dapagliflozin (“DAPA”) on Day 1, PK sampling pre-dose and up to 96 hours post-dose) and Period 2 (Days 5-14; 800 mg sparsentan (“SPAR”) once daily for 10 days with single 10 mg dose DAPA co-administered on Day 11, DAPA PK sampling pre-dose and up to 96 hours after Day 11 dosing). To avoid hypoglycemic events, subjects received an oral 20% glucose solution in water with the DAPA dose and every ~15 minutes up to 4 hours post-dose. Plasma concentrations and PK parameters of DAPA and SPAR were summarized. Subjects with evaluable data for both periods were included in an ANOVA mixed model analysis of DAPA AUC0-t, AUC0-inf, and Cmax following DAPA+SPAR vs DAPA alone. Treatment-emergent adverse events (TEAEs) were summarized.

patients with IgAN [3] = test: PROTECT Phase 3 trial: safety, interim analysis; format: in vivo, human; conditions: 400 mg once daily
Procedure: (§5) The long-term nephroprotective potential of treatment with sparsentan was evaluated in PROTECT, a 114-week, randomized, global, multicenter, double-blind, parallel-group, active-control Phase 3 clinical study in patients with IgAN who have persistent overt proteinuria and remain at high risk of disease progression despite being on a stable dose (or doses) of an angiotensin-converting enzyme inhibitor (ACEI) and/or angiotensin receptor blocker (ARB) that is (are) a maximum tolerated dose that is at least one half of the maximum labeled dose (MLD) (according to approved labeling). The purpose of the study is to evaluate the potential benefit of sparsentan on kidney function by analyzing change in proteinuria (protein in urine) and estimated glomerular filtration rate (eGFR) as compared to current standard treatment.
(§6) All patients were randomized at a 1:1 ratio to receive sparsentan or the active control, irbesartan (an angiotensin receptor blocker), as a single oral morning dose. Sparsentan was administered at a dose of 200 mg once daily by mouth for 2 weeks and then titrated to 400 mg once daily as tolerated. Irbesartan was administered at a dose of 150 mg once daily by mouth for 2 weeks and then titrated to 300 mg once daily as tolerated.
The study provided for an analysis of topline results at 36 weeks, following the first 280 patients reaching 36 weeks of treatment.

patients with FSGS [4] = conditions: Phase 2 clinical study; cited from earlier work
[5] = system: angiotensin II receptors (Type 1) ("AT1" receptors); conditions: selective dual-acting receptor antagonist; cited from earlier work
patients with IgAN [6] = test: PROTECT Phase 3 trial: change in proteinuria (UP/C) and eGFR, sparsentan vs irbesartan; format: in vivo, human; conditions: for mean reduction in proteinuria (UP/C) from baseline: after 36 weeks of treatment, first 280 patients, sparsentan 200 mg titrated to 400 mg once daily or irbesartan 150 mg titrated to 300 mg once daily, oral, p<0.0001
Procedure: as §5
404 patients aged≥18 years were enrolled in the study globally.
Enrolled patients were at high risk of progressing to renal failure. The trial enrolled patients with eGFR≥30 mL/min/1.73 m^2 and urinary protein to creatinine ratio (UP/C)≥1.0 g/g at screening.
Inclusion criteria included: age 18 years or older at screening; biopsy-proven primary IgAN; proteinuria (UP/C) of ≥1 g/day at screening; eGFR≥30 mL/min/1.73 m^2 at screening; currently on stable dose of ACEI and/or ARB therapy, for at least 12 weeks prior to screening (maximum tolerated dose and at least one-half of the maximum labeled dose); systolic BP≤150 mmHg and diastolic BP≤100 mmHg at screening; willing to undergo change in ACEI and/or ARB and anti-hypertensive medications; and agree to contraception.
as §6
Change in proteinuria (UP/C) from baseline (Day 1) at Week 36 in sparsentan-treated patients as compared to irbesartan-treated patients was assessed. The Week 36 UP/C was based on a 24-hour urine sample. Secondary outcome measures included eGFR over a 52-week period and a 104-week period following the initial acute effect of randomized therapy. […] Also assessed was eGFR over a 58-week and a 110-week (approximately 2-year) period following the initiation of randomized therapy (the analysis is from Day 1 to 58 weeks postrandomization or from Day 1 to 110 weeks postrandomization, eGFR total slope at 2 years). […]

[7] = system: endothelin (A type) receptors ("ETA" receptors); conditions: selective dual-acting receptor antagonist; cited from earlier work
patients with FSGS [8] = test: DUPLEX trial: proportion of patients achieving UP/C ≤1.5 g/g and >40% reduction in UP/C (FPRE); format: in vivo, human; conditions: p=0.0094; for patients achieving FPRE (UP/C ≤1.5 g/g and >40 percent reduction in UP/C from Baseline): after 36 weeks of treatment, first approximately 190 patients
Procedure: as §1
The trial enrolled patients with eGFR≥30 mL/min/1.73 m^2 and urinary protein to creatinine ratio (UP/C)>1.5 g/g. Randomization was stratified based on eGFR (≥30 to <60 mL/min/1.73 m^2 versus eGFR≥60 mL/min/1.73 m^2) and UP/C values (≤3.5 g/g versus >3.5 g/g for patients≥18 years of age, or ≤2 g/g versus >2 g/g for patients<18 years of age).
as §2
The proportion of patients achieving a UP/C≤1.5 g/g and a >40% reduction from baseline in UP/C was evaluated after patients completed 36 weeks of treatment.
In the DUPLEX Study, a total of 371 patients were randomized 1:1 to receive either sparsentan or irbesartan, the active control. The study protocol provided for an unblinded analysis to evaluate the interim efficacy endpoint—the proportion of patients achieving FPRE, which is a clinically meaningful endpoint defined as urine protein-to-creatinine ratio (UP/C)≤1.5 g/g and a >40 percent reduction in UP/C from Baseline, at Week 36—following the first approximately 190 patients reaching 36 weeks of treatment. After 36 weeks of treatment, 42.0 percent of patients receiving sparsentan achieved FPRE, compared to 26.0 percent of irbesartan-treated patients (p=0.0094).

[9] = Open-label drug-drug interaction study in healthy adults: safety and tolerability (TEAEs); format: in vivo, human; conditions: 10 mg DAPA, 800 mg SPAR once daily
Procedure: as §3, §4

- effect of multiple dosing of SPAR on single-dose DAPA PK ([2]; healthy adults, 800 mg SPAR once daily for 10 days): did not affect single-dose DAPA PK
SMILES: CCCCC1=NC2(CCCC2)C(=O)N1Cc1ccc(-c2ccccc2S(=O)(=O)Nc2noc(C)c2C)c(COCC)c1 [sparsentan, 2-[4-[(2-butyl-4-oxo-1,3-diazaspiro[4.4]non-1-en-3-yl)methyl]-2-(ethoxymethyl)phenyl]-N-(4,5-dimethyl-1,2-oxazol-3-yl)benzenesulfonamide]
- tolerability (preliminary review of interim safety results) (patients with FSGS [1]; FSGS): generally well-tolerated
- overall safety profiles between treatment groups (patients with FSGS [1]; sparsentan vs active control treatment group): generally comparable between treatment groups
- tolerability (preliminary interim results) (patients with IgAN [3]): generally well-tolerated
- reduction of proteinuria in patients with FSGS (patients with FSGS [4]): shown to reduce proteinuria
- affinity for angiotensin II receptors (Type 1) [5]: selective dual-acting receptor antagonist
- reduction in proteinuria compared to the irbesartan-treated group (patients with IgAN [6]; 36 weeks, sparsentan-treated vs irbesartan-treated group): greater than threefold reduction in proteinuria
- mean reduction in proteinuria (UP/C) from baseline (patients with IgAN [6]): 49.8%
- preliminary eGFR data at interim analysis (patients with IgAN [6]; interim analysis, after two years of treatment): indicative of a potential clinically meaningful treatment effect
- affinity for endothelin (A type) receptors [7]: selective dual-acting receptor antagonist with affinity for endothelin (A type) receptors
- proportion achieving composite endpoint, sparsentan arm vs irbesartan arm (patients with FSGS [8]; Week 36, vs irbesartan): significantly higher
- patients achieving FPRE (UP/C ≤1.5 g/g and >40 percent reduction in UP/C from Baseline) (patients with FSGS [8]): 42.0%

SMILES: CCCCC1=NC2(CCCC2)C(=O)N1Cc1ccc(-c2ccccc2-c2nnn[nH]2)cc1 [irbesartan]
- mean reduction in proteinuria (UP/C) from baseline (patients with IgAN [6]): 15.1%
- patients achieving FPRE (UP/C ≤1.5 g/g and >40 percent reduction in UP/C from Baseline) (patients with FSGS [8]): 26.0%

- mean peak and extent of DAPA exposure (Cmax and AUC) ([2]; 10 mg DAPA alone vs 10 mg DAPA+800 mg SPAR): similar
- AUC(0-inf) ([2]; single 10 mg DAPA alone, Day 1, read-out: AUC0-inf, geometric LSMs (DAPA alone)): 534 ng·h/mL
- AUC(0-t) ([2]; single 10 mg DAPA alone, Day 1, read-out: AUC0-t, geometric LSMs (DAPA alone)): 509 ng·h/mL
- Cmax ([2]; single 10 mg DAPA alone, Day 1, read-out: Cmax, geometric LSMs (DAPA alone)): 73.9 ng/mL
- AUC(0-inf) ([2]; single 10 mg DAPA co-administered on Day 11 with 800 mg SPAR once daily for 10 days, read-out: AUC0-inf, geometric LSMs (DAPA + SPAR)): 565 ng·h/mL
- AUC(0-t) ([2]; single 10 mg DAPA co-administered on Day 11 with 800 mg SPAR once daily for 10 days, read-out: AUC0-t, geometric LSMs (DAPA + SPAR)): 526 ng·h/mL
- Cmax ([2]; single 10 mg DAPA co-administered on Day 11 with 800 mg SPAR once daily for 10 days, read-out: Cmax, geometric LSMs (DAPA + SPAR)): 79.9 ng/mL
- Cmax, GLSMR (DAPA + SPAR vs DAPA alone) ([2]; plasma dapagliflozin, 90% CI 96.0-121.8, intra-subject CV% 22.0): 108.2%
- AUC0-t, GLSMR (DAPA + SPAR vs DAPA alone) ([2]; plasma dapagliflozin, 90% CI 99.9-107.0, intra-subject CV% 6.3): 103.4%
- AUC0-inf, GLSMR (DAPA + SPAR vs DAPA alone) ([2]; plasma dapagliflozin, 90% CI 103.1-108.9, intra-subject CV% 4.4): 105.9%
SMILES: CCOc1ccc(Cc2cc([C@@H]3O[C@H](CO)[C@@H](O)[C@H](O)[C@H]3O)ccc2Cl)cc1 [DAPA, dapagliflozin]
- tolerability of single-dose DAPA co-administered with multiple doses of SPAR [9]: appeared to be well tolerated
